The record followed here is patent publication US6784201B2, “Benzothiepines having activity as inhibitors of ileal bile acid transport and taurocholate uptake” (G.D. Searle & Company, priority 1994, dated 2004).

The target in the test is T1, human IBAT (Homo sapiens, UniProt Q12908).
T1 construct: expressed in transfected cells; host or cells: Baby hamster kidney (BHK) cells, clone H14
T1 sequence (Q12908 1-348): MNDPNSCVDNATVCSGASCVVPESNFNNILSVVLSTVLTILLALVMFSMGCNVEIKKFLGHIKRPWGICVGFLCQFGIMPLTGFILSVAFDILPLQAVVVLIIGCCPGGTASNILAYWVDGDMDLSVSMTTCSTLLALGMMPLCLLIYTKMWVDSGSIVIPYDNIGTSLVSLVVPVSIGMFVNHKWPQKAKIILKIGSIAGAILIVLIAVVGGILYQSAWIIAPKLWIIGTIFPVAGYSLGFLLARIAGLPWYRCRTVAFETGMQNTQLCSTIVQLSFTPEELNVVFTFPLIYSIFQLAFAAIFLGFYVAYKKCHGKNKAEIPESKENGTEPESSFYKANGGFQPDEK
Briefly: In vitro assay of IBAT-mediated uptake of [14C]-taurocholate (TC) in H14 cells. To be noted: read-out: Human TC IC50. It is filed as cell-based. How it is done: In Vitro Assay of Compounds that Inhibit IBAT-Mediated Uptake of [^14C]-Taurocholate (TC) in H14 Cells
Baby hamster kidney cells (BHK) transfected with the cDNA of human IBAT (H14 cells) are seeded at 60,000 cells/well in 96 well Top-Count tissue culture plates for assays run within in 24 hours of seeding, 30,000 cells/well for assays run within 48 hours, and 10,000 cells/well for assays run within 72 hours.
On the day of assay, the cell monolayer is gently washed once with 100 μl assay buffer (Dulbecco's Modified Eagle's medium with 4.5 g/L glucose+0.2% (w/v) fatty acid free bovine serum albumin-(FAF)BSA). To each well 50 μl of a two-fold concentrate of test compound in assay buffer is added along with 50 μl of 6 μM [^14C]-taurocholate in assay buffer (final concentration of 3 μM [^14C]-taurocholate). The cell culture plates are incubated 2 hours at 37° C. prior to gently washing each well twice with 100 μl 4° C. Dulbecco's phosphate-buffered saline (PBS) containing 0.2% (w/v) (FAF)BSA. The wells are then gently washed once with 100 μl 4° C. PBS without (FAF)BSA. To each 200 μl of liquid scintillation counting fluid is added, the plates are heat sealed and shaken for 30 minutes at room temperature prior to measuring the amount of radioactivity in each well on a Packard Top-Count instrument.

For `CCCCC1(CC)CS(=O)(=O)c2ccc(SC)cc2C(c2ccc(F)cc2)C1O` (stereo not drawn) [Example 281], the IC50 amounted to 19 nM.
Under `CCCCC1(CC)CS(=O)(=O)c2ccc(N3CCOCC3)cc2C(c2ccc(F)cc2)C1O` (stereo not drawn) [Example 284] stands 80 nM; under `CCC1(CC)CS(=O)(=O)c2ccc(N)cc2[C@@H](c2ccccc2)[C@H]1O` [Example 287], 4000 nM; under `CCCC1(CCC)CS(=O)(=O)c2ccc(N)cc2[C@@H](c2ccccc2)[C@H]1O` [Example 289], 230 nM.
Consider `CCCCC1(CCCC)CS(=O)(=O)c2ccc(N)cc2[C@@H](c2ccccc2)[C@H]1O` [Example 290], for which the IC50 came to 54 nM.
Regarding `CCCCC1(CCCC)CS(=O)(=O)c2ccc(N)cc2[C@@H](c2ccc(F)cc2)[C@H]1O` [Example 292], the IC50 amounted to 46 nM.
To `CCCCC1(CCCC)CS(=O)(=O)c2ccc(N(C)C)cc2C(c2ccccc2)C1O` (stereo not drawn) [Example 294] belongs 13 nM.
As to `CCCC[C@]1(CC)CS(=O)(=O)c2ccc(N)cc2[C@@H](c2ccc(OCCOCCOCCI)cc2)[C@H]1O` [Example 295], the IC50 was 1300 nM.
As for `CCCCC1(CC)CS(=O)(=O)c2ccc(N)cc2C(c2ccc(OCCOCCOCC[N+](C)(C)C)cc2)C1O` (stereo not drawn) [Example 296], the IC50 worked out at 1600 nM.
On to `CCCCC1(CCCC)CS(=O)(=O)c2ccc(N(C)C)cc2C(c2cccc(NC(=O)CCCC[N+](CC)(CC)CC)c2)C1O` (stereo not drawn) [Example 1005], for which the IC50 is 0.4 nM.
With `CCCCC1(CCCC)CS(=O)(=O)c2ccc(N(C)C)cc2C(c2ccc(OCCOCC[N+]3(C)CCN(C)CC3)c(F)c2)C1O` (stereo not drawn) [Example 1006], the IC50 turned out to be 1 nM.
Take `CCCCC1(CCCC)CS(=O)(=O)c2ccc(N(C)C)cc2C(c2cccc(OCCOCCOCC[N+](CC)(CC)CC)c2)C1O` (stereo not drawn) [Example 1007]: the IC50 turned out to be 1 nM.
With `CCCCC1(CCCC)CS(=O)(=O)c2ccc(N(C)C)cc2C(c2cccc(OCCOCCOCC[n+]3ccccn3)c2)C1O` (stereo not drawn) [Example 1008], the concentration for half-maximal inhibition (IC50) came out at 1 nM.
Under `CCCCC1(CCCC)CS(=O)(=O)c2ccc(N(C)C)cc2C(c2cccc(OCCOCCOCC[n+]3ccc(N(C)C)cc3)c2)C1O` (stereo not drawn) [Example 1009] stands 1 nM; under `CCCCC1(CCCC)CS(=O)(=O)c2ccc(N(C)C)cc2C(c2ccc(OC)c(F)c2)C1O` (stereo not drawn) [Example 1010], 1 nM; under `CCCCC1(CCCC)CS(=O)(=O)c2ccc(N(C)C)cc2C(c2ccc(OCCCCC[N+](CC)(CC)CC)c(F)c2)C1O` (stereo not drawn) [Example 1011], 1 nM.
With `CCCCC1(CCCC)CS(=O)(=O)c2c(OC)cc(N(C)C)cc2C(c2ccc(O)cc2)C1O` (stereo not drawn) [Example 1012], the IC50 amounted to 1.5 nM.
Take `CCCCC1(CCCC)CS(=O)(=O)c2ccc(N(C)C)cc2C(c2ccc(OCCOCCOCC[N+](C)(C)C)c(F)c2)C1O` (stereo not drawn) [Example 1013]: the IC50 was determined as 2 nM.
As to `CCCCC1(CCCC)CS(=O)(=O)c2c(OC)cc(N(C)C)cc2C(c2ccc(OC)cc2)C1O` (stereo not drawn) [Example 1014], the IC50 was determined as 2 nM.
Regarding `CCCCC1(CCCC)CS(=O)(=O)c2ccc(N(C)C)cc2C(c2ccc(OCCOCC[N+]3(C)CCCC3)c(F)c2)C1O` (stereo not drawn) [Example 1015], the IC50 was 2 nM.
To `CCCCC1(CCCC)CS(=O)(=O)c2ccc(N(C)C)cc2C(c2cccc(OCCOCCOCC[N+](C)(C)CC(=O)O)c2)C1O` (stereo not drawn) [Example 1016] belongs 2 nM; to `CCCCC1(CCCC)CS(=O)(=O)c2ccc(N(C)C)cc2C(c2cccc(OCCOCCOCC[n+]3ccc(C)c4ccccc43)c2)C1O` (stereo not drawn) [Example 1017], 2 nM; to `CCCCC1(CCCC)CS(=O)(=O)c2ccc(N(C)C)cc2C(c2cccc(OCCOCCOCC[N+](C)(C)CCN(C)C(=O)c3ccccc3)c2)C1O` (stereo not drawn) [Example 1018], 2 nM.
`CCCCC1(CCCC)CS(=O)(=O)c2ccc(N(C)C)cc2C(c2ccc(OCCCCOCCCC[n+]3ccccc3)c(F)c2)C1O` (stereo not drawn) [Example 1019]: the IC50 came to 2 nM.
For the compound `CCCCC1(CCCC)CS(=O)(=O)c2ccc(N(C)C)cc2C(c2ccc(OCc3cccc(C[N+](CC)(CC)CC)n3)c(F)c2)C1O` (stereo not drawn) [Example 1020], the IC50 stood at 2 nM.
Take `CCCCC1(CCCC)CS(=O)(=O)c2ccc(N(C)C)cc2C(c2cccc(OCCOCCOCC[N+]3(CCO)CCOCC3)c2)C1O` (stereo not drawn) [Example 1021]: the IC50 was determined as 2 nM.
Regarding `CCCCC1(CCCC)CS(=O)(=O)c2ccc(N(C)C)cc2C(c2cccc(OCCOCCOCC[N+](CC)(CC)CCO)c2)C1O` (stereo not drawn) [Example 1022], the IC50 is 2 nM.
As to `C=C(C)C(=O)OCC[N+](CC)(CC)CCOCCOCCOc1cccc(C2c3cc(N(C)C)ccc3S(=O)(=O)CC(CCCC)(CCCC)C2O)c1` (stereo not drawn) [Example 1023], the IC50 was found to be 2 nM.
Consider `CCCCC1(CCCC)CS(=O)(=O)c2ccc(N(C)C)cc2C(c2cccc(OCCOCCOCC[N+](C)(C)CCN(C)P(C)(=O)c3ccccc3)c2)C1O` (stereo not drawn) [Example 1024], for which the IC50 was 2 nM.
To `CCCCC1(CCCC)CS(=O)(=O)c2ccc(N(C)C)cc2C(c2ccc(OCc3cccc(C[N+](CC)(CC)CC)c3)c(F)c2)C1O` (stereo not drawn) [Example 1025] belongs 2 nM; to `CCCCC1(CCCC)CS(=O)(=O)c2ccc(N(C)C)cc2C(c2cccc(OCCOCCOCC[n+]3ccc(C(C)C)cc3)c2)C1O` (stereo not drawn) [Example 1026], 2 nM.
For the compound `CCCCC1(CCCC)CS(=O)(=O)c2ccc(N(C)C)cc2C(c2cccc(OCCOCCOCC[n+]3ccc(C(C)C)cc3)c2)C1O` (stereo not drawn) [Example 1027], the IC50 is 2 nM.
In the case of `CCCCC1(CCCC)CS(=O)(=O)c2ccc(N(C)C)cc2C(c2cccc(OCCOCCOCC[n+]3ccc(C(=O)O)cc3)c2)C1O` (stereo not drawn) [Example 1028], the IC50 is 2 nM.
To `CCCCC1(CCCC)CS(=O)(=O)c2ccc(N(C)C)cc2C(c2cccc(OCCOCCOCC[N+]3(C)CCC(C(=O)c4ccccc4)CC3)c2)C1O` (stereo not drawn) [Example 1029] belongs 2 nM; to `CCCCC1(CCCC)CS(=O)(=O)c2ccc(N(C)C)cc2C(c2cccc(OCCOCCOCC[n+]3cc4ccccn4c3)c2)C1O` (stereo not drawn) [Example 1030], 2 nM.
Take `CCCCC1(CCCC)CS(=O)(=O)c2ccc(N(C)C)cc2C(c2ccc(OCCCCOCCCC[N+](CC)(CC)CC)c(F)c2)C1O` (stereo not drawn) [Example 1031]: the IC50 was found to be 2 nM.
Under `CCCCC1(CCCC)CS(=O)(=O)c2ccc(N(C)C)cc2C(c2cccc(OCCCCC[N+](CC)(CC)CC)c2)C1O` (stereo not drawn) [Example 1032] stands 2 nM; under `CCCCC1(CCCC)CS(=O)(=O)c2ccc(N(C)C)cc2C(c2ccc(OCCOCCOCC[N+]3(C)CCN(C)CC3)c(F)c2)C1O` (stereo not drawn) [Example 1033], 2 nM; under `CCCCC1(CCCC)CS(=O)(=O)c2ccc(N(C)C)cc2C(c2cccc(OCCOCCOCC[n+]3cccc4ccc5ccccc5c43)c2)C1O` (stereo not drawn) [Example 1034], 2 nM.
Under `CCCCC1(CCCC)CS(=O)(=O)c2ccc(N(C)C)cc2C(c2cccc(OCCOCCOCC[N+](C)(C)CCN(CC)P(C)(=O)c3ccccc3)c2)C1O` (stereo not drawn) [Example 1035] stands 2 nM.
For `CCCCC1(CCCC)CS(=O)(=O)c2ccc(N(C)C)cc2C(c2ccc(O)cc2)C1O` (stereo not drawn) [Example 1037], the IC50 turned out to be 2.2 nM.
As to `CCCCC1(CCCC)CS(=O)(=O)c2ccc(N(C)C)cc2C(c2cccc(OCC[N+](C)(C)C)c2)C1O` (stereo not drawn) [Example 1038], the IC50 stood at 2.5 nM.
As for `CCCCC1(CCCC)CS(=O)(=O)c2ccc(N(C)C)cc2C(c2ccccc2)C1O` (stereo not drawn) [Example 1039], the IC50 turned out to be 2.6 nM.
For `CCCCC1(CCCC)CS(=O)(=O)c2ccc(N(C)C)cc2C(c2ccc(OCCCCOCCCC[N+](CC)(CC)CC)c(F)c2)C1O` (stereo not drawn) [Example 1040], the IC50 amounted to 3 nM.
Turning to `CCCCC1(CCCC)CS(=O)(=O)c2ccc(N(C)C)cc2C(c2cccc(OCCOCCOCC[n+]3ccnc4ccccc43)c2)C1O` (stereo not drawn) [Example 1041], the IC50 was 3 nM.
Take `C=CC(=O)Nc1cccc(C2c3cc(N(C)C)ccc3S(=O)(=O)CC(CCCC)(CCCC)C2O)c1` (stereo not drawn) [Example 1043]: the IC50 was determined as 3 nM.
Under `CCCCC1(CCCC)CS(=O)(=O)c2ccc(N(C)C)cc2C(c2ccc(OCCOCC[N+](CC)(CC)CC)c(F)c2)C1O` (stereo not drawn) [Example 1044] stands 3 nM; under `CCCCC1(CCCC)CS(=O)(=O)c2ccc(N(C)C)cc2C(c2ccc(OCCCCCCCC[N+](CC)(CC)CC)c(F)c2)C1O` (stereo not drawn) [Example 1045], 3 nM; under `CCCCC1(CCCC)CS(=O)(=O)c2ccc(N(C)C)cc2C(c2cccc(N)c2)C1O` (stereo not drawn) [Example 1046], 3 nM.
As to `CCCCC1(CCCC)CS(=O)(=O)c2ccc(N(C)C)cc2C(c2ccc(OCCOCCOCC[N+](CC)(CC)CC)cc2)C1O` (stereo not drawn) [Example 1048], the IC50 came out at 3 nM.
For the compound `CCCCC1(CCCC)CS(=O)(=O)c2ccc(N(C)C)cc2C(c2ccc(OCCOCC[n+]3ccccc3)c(F)c2)C1O` (stereo not drawn) [Example 1049], the IC50 amounted to 3 nM.
